Experimental data: PubChem BioAssay (NCI)
Several values for one entry are separate records, joined by “and”; a condition that tells them apart may be missing. Equal entries are not always repeated.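 Values below derive from 48-hour exposures of cells grown in 96-well plates, with endpoints linearly interpolated between the two concentrations bracketing the appropriate inhibition level. The concentration for 50% growth inhibition is given as GI50. TGI denotes the concentration required for complete inhibition of growth.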

Experiments:
Assay in all cases: NCI-60 cell line screen, 48 h
CCRF-CEM leukemia = tested on: CCRF-CEM leukemia
COLO 205 colon = tested on: COLO 205 colon
HL-60(TB) leukemia = tested on: HL-60(TB) leukemia
HOP-62 NSCLC = tested on: HOP-62 NSCLC
HT29 colon = tested on: HT29 colon
IGROV1 ovarian = tested on: IGROV1 ovarian
NCI-H522 lung = tested on: NCI-H522 lung
SF-268 CNS = tested on: SF-268 CNS
SN12C renal = tested on: SN12C renal
UACC-62 melanoma = tested on: UACC-62 melanoma

Row | SMILES | GI50 (CCRF-CEM leukemia) [µM] | TGI (CCRF-CEM leukemia) [µM] | GI50 (COLO 205 colon) | TGI (COLO 205 colon) [µM] | GI50 (HL-60(TB) leukemia) [µM] | TGI (HL-60(TB) leukemia) [µM] | GI50 (HOP-62 NSCLC) [nM] | TGI (HOP-62 NSCLC) | GI50 (HT29 colon) | TGI (HT29 colon) [µM] | GI50 (IGROV1 ovarian) | TGI (IGROV1 ovarian) [µM] | GI50 (NCI-H522 lung) | TGI (NCI-H522 lung) [µM] | GI50 (SF-268 CNS) | TGI (SF-268 CNS) [µM] | GI50 (SN12C renal) [nM] | TGI (SN12C renal) [µM] | GI50 (UACC-62 melanoma) [nM] | TGI (UACC-62 melanoma) [µM]
1 | CCOC(=O)c1sc(-c2ccc(OS(=O)(=O)c3ccc(Br)s3)c(C=O)c2)nc1C | 2.36 | 9.16 | 16.8 µM | 33.8 | 3.66 | 19.7 | 3300 | 12.5 µM | 2450 nM | 6.43 | 3.31 µM | 12.7 | 2960 nM | 10.5 | 3.01 µM | 13.2 | 3090 | 10.7 | 2210 | 5.97
2 | S=C(Nc1ccc(Br)cc1)Nc1ccc(Br)cc1 | 6.19 | > 100 | 7.82 µM | > 100 | 5.79 | > 100 | 83900 | > 100 µM | 7220 nM | > 100 | 7.41 µM | > 100 | 2920 nM | 98.6 | 67.8 µM | > 100 | 9720 | > 100 | 3520 | > 100
3 | CC(=O)OCC1OC(n2c(-c3ccc(Cl)cc3)ccc(C#N)c2=S)C(OC(C)=O)C(OC(C)=O)C1OC(C)=O (stereo not given) | – | > 100 | > 100 µM and 49.5 µM | > 100 | – | > 100 | – | 26.1 µM and > 100 µM | – | > 100 | 44.3 µM and > 100 µM | > 100 | 27800 nM and 61600 nM | > 100 | 5.5 µM and 34.9 µM | > 100 | – | > 100 | – | > 100
4 | O=C(CP(=O)(O)O)NC(CC(=O)OCc1ccccc1)C(=O)OCc1ccccc1 (stereo not given) | – | > 100 | – | > 100 | – | > 100 | – | > 100 µM | – | > 100 | – | > 100 | – | > 100 | – | > 100 | – | > 100 | – | > 100
5 | CN(C)CCCOc1ccc(-c2ccc3ncc4c(c3c2)n(C2CCOCC2)c(=O)n4C)cn1 | 3.02 | 22.7 | 0.825 µM | 3.28 | 2.48 | 15.9 | 1870 | 12.5 µM | 1950 nM | 13.5 | 0.454 µM | 5.6 | 985 nM | 12.4 | 2.04 µM | 29.5 | 2120 | 20.9 | 2730 | 13.8
6 | CCCC(=O)NC1=C(Cl)C(=O)c2ccccc2C1=O | – | > 100 | – | 3.83 | – | 0.899 | – | 25.7 µM | – | 27.7 | – | 17.9 | – | 2.37 | – | 30.2 | – | 31 | – | 10.3
7 | CN[C@H]1C=C[C@@H]2/C=C(C)/C=C/[C@@H](C)[C@H]([C@H](C)[C@H](O)[C@@H](C)NC(C)=O)OC(=O)/C=C/C=C(C)\C=C\[C@]2(C)C1 | 6.16 | > 49 | 0.00815 µM | 8.64 | 0.0332 | 35.7 | 7.65 | > 49 µM | < 1 nM and 4.9 nM | > 49 | 0.0049 µM | > 49 | 45 nM and 22.9 nM | 13.1 | 0.0821 µM and 0.042 µM | > 49 | 6.33 | > 49 | 22 | 19.7
8 | CCOC(=O)C1N(S(=O)(=O)c2ccc(C)cc2)CCC12c1ccccc1N(C(C)=O)C2c1ccc(OC)c(OC)c1 (stereo not given) | – | > 100 | – | > 100 | – | > 100 | – | > 100 µM | – | > 100 | – | > 100 | – | > 100 | – | > 100 | – | > 100 | – | > 100
9 | CCCNNC(=O)/C=C/c1ccc(CNCCc2c(C)[nH]c3ccccc23)cc1 | 0.0138 | 6.43 | 0.0111 µM | 0.0428 | 0.0123 | 3.96 | 31 | 0.785 µM | 12.3 nM | 1.53 | < 0.0339 µM | 0.216 | 44.7 nM | 4.19 | 0.0744 µM | 0.951 | 63.4 | 3.76 | 23.7 | 0.0744
10 | Oc1[nH]c2ccccc2c1N=Nc1ccccn1 | – | 58.8 | – | > 100 | – | 86.5 | – | 91.7 µM | – | 55.5 | – | 90.7 | – | 78.8 | – | > 100 | – | > 100 | – | > 100
11 | COc1ccc(-c2cc(=O)c3ccc(C)nc3[nH]2)cc1 | – | > 100 | – | > 100 | > 100 | > 100 | – | > 100 µM | – | > 100 | – | > 100 | – | > 100 | – | > 100 | – | > 100 | – | > 100
12 | Cc1cc(S(=O)(=O)Nc2nc3cscc3c(=O)n2Cc2ccccc2)c(S)cc1Cl | 14 | > 100 | > 100 µM | > 100 | 44.1 | > 100 | 16500 | 39.3 µM | 47900 nM | > 100 | 64.9 µM | > 100 | 81600 nM | > 100 | 31 µM | > 100 | 16600 | 54.5 | 50500 | > 100
